{
  "source": "patent US20200147039A1",
  "about": "“COMPOUNDS USEFUL IN INHIBITING HUMAN TREFOIL FACTOR 3” (NATIONAL UNIVERSITY OF SINGAPORE, priority 2017, published 2020)",
  "key": {"BT474": {"test_system": "BT474", "experiment": "AlamarBlue cell viability assay, BT474", "format": "cell-based", "conditions": "Homo sapiens, BT-474, Mammary", "source_text": "(§1) (A) Inhibitory concentration 50% (IC50) values for compound 43 in the MC cell lines are tabulated, using an AlamarBlue™ cell viability assay as previously described in Pandey V et al., Breast Cancer Res. 2014; 16(5):429. (B) Measured dose-dependent manner effect of compound 43 on the viability of MC cells (left-side, TFF3-high and right, TFF3-low) using AlamarBlue™ viability assay as previously described (ibid). (C) Apoptotic cell death of mammary carcinoma cell lines measured after treatment with 10 μM compound 43 using flow cytometry analysis at 24 hour as described previously in Keerthy H K et al., PloS one. 2014; 9(9):e107118. Annexin V-FITC staining is indicated on the X-axis and PI staining on the Y-axis. […] Acquisition of Annexin V and PI data were represented as percentage (%) in each quadrant. Note: CM, conditioned media; MCF10A and MCF12A, non-transformed immortalized-mammary epithelial cell line. Points are mean of triplicate experiments; bars, ±SD. Statistical significance was assessed by using an unpaired two-tailed Student's t test (P<0.05 was considered as significant) using GraphPad Prism5. […]\n(§2) In table 9 IC50 values of compound 43 compound library in several cancer cell lines are tabulated, using an AlamarBlue® cell viability assay as previously described in Pandey V et al., Breast Cancer Res. 2014; 16(5):429. Statistical analysis was assessed by using GraphPad Prism5. […]"}, "MDA-MB-231": {"test_system": "MDA-MB-231", "experiment": "AlamarBlue cell viability assay, MDA-MB-231", "format": "cell-based", "conditions": "Homo sapiens, Mammary", "source_text": "as §1, §2"}, "Ishikawa": {"test_system": "Ishikawa", "experiment": "AlamarBlue cell viability assay, Ishikawa", "format": "cell-based", "conditions": "Homo sapiens, Endometrial", "description": "(§3) The human immortalized mammary epithelial cell lines, MCF10A, and MCF12A; and immortalized hepatocellular epithelial cell line, LO2 were obtained from the American Type Culture Collection (ATCC, Rockville, Md.) and were cultured as per ATCC propagation instructions. MC cell lines, MCF7, T47D, BT474, BT20, MDA-MB-361, MDA-MB-436, MDA-MB-468, and MDA-MB-231; endometrial carcinoma cell lines, Ishikawa, ECC1, RL95-2 and AN3; hepatocellular carcinoma cell lines, Hep3B, H2P, and H2M; colon carcinoma cell lines, DLD-1, and Caco-2; and prostate carcinoma cell lines, PC3, LNCaP, and DU145 were obtained from the American Type Culture Collection (ATCC, Rockville, Md.). Pancreatic carcinoma cell lines, AsPC-1 and BxPC-3; Lung carcinoma cell lines, HCC-827, NCI-H1975, HCC-4006, PC-14, and NCI-H1299; and Thyroid carcinoma cell lines HTH83, CAL62, T238, and OGK-M were obtained from Prof. H. Phillip Koeffler's laboratory at The Cancer Science Institute of Singapore, National University of Singapore (NUS). Gastric carcinoma cell lines, AGS, MKN-28, MKN-45, and A2-528 were obtained from Prof. […]\nas §2"}, "H1975": {"test_system": "H1975", "experiment": "AlamarBlue cell viability assay, H1975", "format": "cell-based", "conditions": "Homo sapiens, NCI-H1975, Lung", "description": "as §3, §2"}, "H2P": {"test_system": "H2P", "experiment": "AlamarBlue cell viability assay, H2P", "format": "cell-based", "conditions": "Homo sapiens, Hepatocellular", "description": "as §3, §2"}, "DLD-1": {"test_system": "DLD-1", "experiment": "AlamarBlue cell viability assay, DLD-1", "format": "cell-based", "conditions": "Homo sapiens, Colon", "description": "as §3, §2"}, "PC3": {"test_system": "PC3", "experiment": "AlamarBlue cell viability assay, PC3", "format": "cell-based", "conditions": "Homo sapiens, PC-3, Prostate", "description": "as §3, §2"}, "T238": {"test_system": "T238", "experiment": "AlamarBlue cell viability assay, T238", "format": "cell-based", "conditions": "Homo sapiens, Thyroid", "description": "as §3, §2"}, "MCF7": {"test_system": "MCF7", "experiment": "qPCR analysis of mRNA levels of genes associated with oncogenic progression, MCF7", "format": "cell-based, human", "conditions": "MCF7, 10 μM", "description": "Total RNA was isolated from cells using TRIzol Plus RNA Purification system as previously described in Pandey V et al., Endocrinology. 2010; 151(3):909-920. qPCR assays were performed as previously described in Pandey V et al., Endocrinology. 2010; 151(3):909-920; and Pandey V et al., Endocrinology. 2008; 149(8):3909-3919. Gene expression analysis was performed as previously described in Pandey V et al., Endocrinology. 2010; 151(3):909-920; and Pandey V et al., Endocrinology. 2008; 149(8):3909-3919."}, "[1]": {"test_system": "high-TFF3 expression MC cells", "experiment": "ApoTox-Glo Triplex Assay and western blot (FIG. 2)", "format": "cell-based, human", "conditions": "10 μM", "description": "Effect of compound 43 (10 μM) on cell viability of high-TFF3 MC cell lines. (A) Cell viability (B) caspase 3/7 activities and (C) cytotoxicity was evaluated using ApoTox-Glo™ Triplex Assay Kit Promega (Singapore) according to manufacturer's instructions. Cell viability fluorescence is measured at 400Ex/505Em, cytotoxicity fluorescence is measured at 485Ex/520Em, while apoptosis (caspase 3/7 activities) is determined by luminescence measurement. (D) Western blot analysis was used to assess the level of various protein markers and protein activity in high-TFF3 expression MC cells after treatment with compound 43. Soluble whole cell extracts were run on a SDS-PAGE and immunoblotted as previously described in Pandey V et al., Breast Cancer Res. 2014; 16(5):429. β-ACTIN (ACTB) was used as input control for cell lysate. The sizes of detected protein bands in kDa are shown on the left side. Statistical significance was assessed by using an unpaired two-tailed Student's t test (P<0.05 was considered as significant) using GraphPad Prism5. Columns are mean of triplicate experiments; bars, ±SD. **P<0.001, *P<0.05."}},
  "data": [
    {"smiles": "Cc1cc(-c2ccc(C3C(C#N)=C(N)Oc4c3c(=O)oc3ccccc43)cc2)cnc1F", "note": "(stereo not shown) [Compound 43, 2-Amino-4-(4-(6-fluoro-5-methylpyridin-3-yl)phenyl)-5-oxo-4H,5H-pyrano[3,2-c]chromene-3-carbonitrile]", "values": [
      {"measurement": "IC50", "setting": "BT474", "value": 2.69, "unit": "µM"},
      {"measurement": "IC50", "setting": "MDA-MB-231", "value": 408, "unit": "µM"},
      {"measurement": "IC50", "setting": "Ishikawa", "value": 0.94, "unit": "µM"},
      {"measurement": "IC50", "setting": "H1975", "value": 11.8, "unit": "µM"},
      {"measurement": "IC50", "setting": "H2P", "value": 11.3, "unit": "µM"},
      {"measurement": "IC50", "setting": "DLD-1", "value": 4.12, "unit": "µM"},
      {"measurement": "IC50", "setting": "PC3", "value": 0.68, "unit": "µM"},
      {"measurement": "IC50", "setting": "T238", "value": 185, "unit": "µM"},
      {"measurement": "APAF1 mRNA, Fold change relative to vehicle control", "setting": "MCF7", "value": 0.94, "unit": "fold"},
      {"measurement": "ATM mRNA, Fold change relative to vehicle control", "setting": "MCF7", "value": 0.32, "unit": "fold"},
      {"measurement": "BAD mRNA, Fold change relative to vehicle control", "setting": "MCF7", "value": 0.09, "unit": "fold"},
      {"measurement": "BAK1 mRNA, Fold change relative to vehicle control", "setting": "MCF7", "value": 2.09, "unit": "fold"},
      {"measurement": "BAX mRNA, Fold change relative to vehicle control", "setting": "MCF7", "value": 18.54, "unit": "fold"},
      {"measurement": "BCL2L1 mRNA, Fold change relative to vehicle control", "setting": "MCF7", "value": 0.04, "unit": "fold"},
      {"measurement": "BCL2 mRNA, Fold change relative to vehicle control", "setting": "MCF7", "value": 0.06, "unit": "fold"},
      {"measurement": "BCLAF1 mRNA, Fold change relative to vehicle control", "setting": "MCF7", "value": 0.87, "unit": "fold"},
      {"measurement": "BRCA1 mRNA, Fold change relative to vehicle control", "setting": "MCF7", "value": 2.00, "unit": "fold"},
      {"measurement": "CASP7 mRNA, Fold change relative to vehicle control", "setting": "MCF7", "value": 30.71, "unit": "fold"},
      {"measurement": "CCND1 mRNA, Fold change relative to vehicle control", "setting": "MCF7", "value": 0.01, "unit": "fold"},
      {"measurement": "CDC25A mRNA, Fold change relative to vehicle control", "setting": "MCF7", "value": 0.49, "unit": "fold"},
      {"measurement": "CDK2 mRNA, Fold change relative to vehicle control", "setting": "MCF7", "value": 0.15, "unit": "fold"},
      {"measurement": "CDK4 mRNA, Fold change relative to vehicle control", "setting": "MCF7", "value": 0.18, "unit": "fold"},
      {"measurement": "CDKN1A mRNA, Fold change relative to vehicle control", "setting": "MCF7", "value": 114.92, "unit": "fold"},
      {"measurement": "CDKN1B mRNA, Fold change relative to vehicle control", "setting": "MCF7", "value": 11.08, "unit": "fold"},
      {"measurement": "CDKN2A mRNA, Fold change relative to vehicle control", "setting": "MCF7", "value": 5.45, "unit": "fold"},
      {"measurement": "CFLAR mRNA, Fold change relative to vehicle control", "setting": "MCF7", "value": 0.02, "unit": "fold"},
      {"measurement": "CHEK2 mRNA, Fold change relative to vehicle control", "setting": "MCF7", "value": 1.14, "unit": "fold"},
      {"measurement": "Cyclin E1 mRNA, Fold change relative to vehicle control", "setting": "MCF7", "value": 0.01, "unit": "fold"},
      {"measurement": "E2F1 mRNA, Fold change relative to vehicle control", "setting": "MCF7", "value": 1.80, "unit": "fold"},
      {"measurement": "GZMA mRNA, Fold change relative to vehicle control", "setting": "MCF7", "value": 0.93, "unit": "fold"},
      {"measurement": "HTATIP2 mRNA, Fold change relative to vehicle control", "setting": "MCF7", "value": 2.87, "unit": "fold"},
      {"measurement": "MDM2 mRNA, Fold change relative to vehicle control", "setting": "MCF7", "value": 6.62, "unit": "fold"},
      {"measurement": "RB1 mRNA, Fold change relative to vehicle control", "setting": "MCF7", "value": 1.00, "unit": "fold"},
      {"measurement": "S100A4 mRNA, Fold change relative to vehicle control", "setting": "MCF7", "value": 1.49, "unit": "fold"},
      {"measurement": "TERT mRNA, Fold change relative to vehicle control", "setting": "MCF7", "value": 0.11, "unit": "fold"},
      {"measurement": "TNFRSF1A mRNA, Fold change relative to vehicle control", "setting": "MCF7", "value": 1.15, "unit": "fold"},
      {"measurement": "TNFRSF10B mRNA, Fold change relative to vehicle control", "setting": "MCF7", "value": 1.05, "unit": "fold"},
      {"measurement": "TNFRSF25 mRNA, Fold change relative to vehicle control", "setting": "MCF7", "value": 1.41, "unit": "fold"},
      {"measurement": "TP53 mRNA, Fold change relative to vehicle control", "setting": "MCF7", "value": 282.98, "unit": "fold"},
      {"measurement": "intrinsic apoptosis", "setting": "[1]", "value": "stimulates intrinsic apoptosis"}
    ]}
  ]
}
